The term IC50 denotes the midpoint of a concentration-inhibition curve. The low end stands for greater potency, the high end for weaker potency.

Calls of active or inactive are those of the source. The calls are words filed in the database; no cut-off is given here. Where only a bound is given, the exact number is not on record here.

This passage reports Activity and IC50 results from ChEMBL document CHEMBL3046896, “Synthesis and antitumor screening of new series of pyrimido-[4,5-b]quinolines and [1,2,4]triazolo[2,3:3,4]pyrimido[6,5-b]quinolines” (Med Chem Res, 2013).

The nature of experiment [1]: Binding affinity to DNA at 5 mg/ml by TLC analysis.
The test system of the next experiment is MCF7. Put plainly: Cytotoxicity against Homo sapiens (human) MCF7 cells after 48 hr by SRB assay. Particulars: MCF7, 48 h. The experiment is classed as functional, cell-based. (The SRB assay estimates cell density from bound dye.)
Experiment [2] is described as follows: Displacement of methyl green from DNA after 24 hr by spectrophotometric analysis.

On to `O=c1[nH]cnc2c1C(c1ccccc1)C1=C(CCCC1)N2` (stereo not drawn), for which the outcome in experiment [1] was inactive. The results for the half-maximal inhibitory concentration (IC50) (in the experiment with MCF7; in experiment [2]) were > 10 µM and 88 µM, respectively.
For `N=c1c2c(ncn1/N=C/c1ccc(Cl)cc1)NC1=C(CCCC1)C2c1ccc(Cl)cc1` (stereo not drawn), in that order: “Active”, > 10 µM and 70 µM.
Take `COc1ccc(C2C3=C(CCCC3)Nc3nc(C)[nH]c(=O)c32)cc1OC` (stereo not drawn): in experiment [1], the outcome was Active. The 50% inhibitory concentration (IC50) is > 10 µM with MCF7 and 25 µM in experiment [2].
For the molecule `COc1ccc(/C=N/n2cnc3c(c2=N)C(c2ccccc2)C2=C(CCCC2)N3)cc1OC` (stereo not drawn), the result in experiment [1] was Active. Besides, the 50% inhibitory concentration (IC50) in the experiment with MCF7 is 5.37 µM; in experiment [2] it was 32 µM.
For `Brc1cccc(C2C3=C(CCCC3)Nc3ncn4ncnc4c32)c1` (stereo not drawn), in that order: “inactive”, > 10 µM and 90 µM.
Consider `N=c1c2c([nH]c(=S)n1-c1ccccc1)NC1=C(CCCC1)C2c1ccc(Cl)cc1` (stereo not drawn), for which the result in experiment [1] was Active. The 50% inhibitory concentration (IC50) in experiment [2] is 55 µM.
Turning to `Nc1ncnc2c1C(c1ccc(Cl)cc1)C1=C(CCCC1)N2` (stereo not drawn), the outcome in experiment [1] was Active. Further, the IC50 in the experiment with MCF7 was 3.89 µM; in experiment [2], 25 µM.
The molecule BLEOMYCIN came in with a 50% inhibitory concentration (IC50) in experiment [2] of 10 µM.
As to `S=c1[nH]c2c(c(=S)[nH]1)C(c1ccccc1)C1=C(CCCC1)N2` (stereo not drawn), in experiment [1], the outcome was Active. Further, the concentration for half-maximal inhibition (IC50) in experiment [2] came out at 72 µM.
As for `N=c1c2c([nH]c(=S)n1-c1ccccc1)NC1=C(CCCC1)C2c1ccccc1` (stereo not drawn), the outcome in experiment [1] was Active. The 50% inhibitory concentration (IC50) came to 6.98 µM in the experiment with MCF7 and 25 µM in experiment [2].
Consider `S=c1[nH]c2c(c(=S)[nH]1)C(c1cccc(Br)c1)C1=C(CCCC1)N2` (stereo not drawn), for which the outcome in experiment [1] was Active. The 50% inhibitory concentration (IC50) in the experiment with MCF7 turned out to be 4.5 µM; in experiment [2] it was 76 µM.
The like results for `Cc1nc2c(c(=O)[nH]1)C(c1ccccc1)C1=C(CCCC1)N2` (stereo not drawn) were, in that order, “Active”, 4.97 µM and 22 µM.
For `COc1ccc(C2C3=C(CCCC3)Nc3[nH]c(=S)n(-c4ccccc4)c(=N)c32)cc1OC` (stereo not drawn), in that order: “Active”, 5.3 µM and 40 µM.
For `CCOC(=O)/N=c1/c2c(ncn1NC(=O)OCC)NC1=C(CCCC1)C2c1ccccc1` (stereo not drawn), in that order: “Active”, 5.44 µM and 40 µM.
On to `COc1ccc(C2C3=C(CCCC3)Nc3ncn(/N=C/c4ccc(Cl)cc4)c(=N)c32)cc1OC` (stereo not drawn), for which the result in experiment [1] was Active. Also, the half-inhibitory concentration (IC50) in the experiment with MCF7 was determined as 3.76 µM; in experiment [2], 14 µM.
For the molecule `COc1ccc(C2C3=C(CCCC3)Nc3ncnc(N)c32)cc1OC` (stereo not drawn), the outcome in experiment [1] was Active. Besides, the 50% inhibitory concentration (IC50) amounted to 3.62 µM in the experiment with MCF7 and 12 µM in experiment [2].
For `c1ccc(C2C3=C(CCCC3)Nc3ncn4ncnc4c32)cc1` (stereo not drawn), in that order: “inactive”, > 10 µM and 88 µM.
Regarding `Cc1nc2c(c(=O)[nH]1)C(c1cccc(Br)c1)C1=C(CCCC1)N2` (stereo not drawn), the outcome in experiment [1] was Active. Further, the figures for the concentration for half-maximal inhibition (IC50) (in the experiment with MCF7; in experiment [2]) were 4.03 µM and 32 µM, respectively.
Turning to `COc1ccc(/C=N/n2cnc3c(c2=N)C(c2ccc(OC)c(OC)c2)C2=C(CCCC2)N3)cc1OC` (stereo not drawn), the result in experiment [1] was Active. The IC50 in the experiment with MCF7 was 6.17 µM; in experiment [2], 38 µM.
As for `CCCCn1c(=S)[nH]c2c(c1=N)C(c1ccc(Cl)cc1)C1=C(CCCC1)N2` (stereo not drawn), the result in experiment [1] was inactive. In experiment [2], this molecule yielded a half-maximal inhibitory concentration (IC50) of 88 µM.
Consider `CCCCn1c(=S)[nH]c2c(c1=N)C(c1ccccc1)C1=C(CCCC1)N2` (stereo not drawn), for which the result in experiment [1] was Active. Also, the IC50 was 5.7 µM in the experiment with MCF7 and 72 µM in experiment [2].
For `COc1ccc(C2C3=C(CCCC3)Nc3[nH]c(=S)[nH]c(=S)c32)cc1OC` (stereo not drawn), the outcome in experiment [1] was Active. Besides, the IC50 is > 10 µM in the experiment with MCF7 and 38 µM in experiment [2].
On to `N=c1c2c(ncn1/N=C/c1ccc(Cl)cc1)NC1=C(CCCC1)C2c1ccccc1` (stereo not drawn), for which the result in experiment [1] was inactive. Also, in experiment [2], the half-inhibitory concentration (IC50) turned out to be 88 µM.
